Test results from patent US20230094870A1, “CHEMILU[…] FOR TUBERCULOSIS” (priority 2020, published 2023).
Non-standard residues stand in square brackets, D forms with d. Residues, ends and D or L forms follow the SMILES beside them. *: point of attachment. X1 = COC1(c2ccc(/C=C/C(=O)O)c(OCc3ccc(N*)cc3)c2Cl)OOC12C1CC3CC(C1)CC2C3; Phe(4-Cl) = N[C@@H](Cc1ccc(Cl)cc1)C(=O)O; Igl = N[C@H](C(=O)O)C1Cc2ccccc2C1

How the values were obtained:
Mtb strain mc^26020 = format: cell-based, Mycobacterium tuberculosis; conditions: Mtb mc^26020 incubated with FLASH for 1 h
Mtb strain H37Rv = format: cell-based, Mycobacterium tuberculosis; conditions: Mtb H37Rv incubated with FLASH for 1 h
recombinant Hip1 enzyme = molecular target: T1, recombinant Hip1 enzyme (Mycobacterium tuberculosis, UniProt P9WHR3); assay: Hip1 activity measurement with FLASH probe (chemiluminescence); format: biochemical; conditions: total integrated luminescence after 1 h
T1 construct: Recombinant Hip1 was purified as previously described (Lentz et al., 2016); made in house
T1 sequence (P9WHR3 31-520): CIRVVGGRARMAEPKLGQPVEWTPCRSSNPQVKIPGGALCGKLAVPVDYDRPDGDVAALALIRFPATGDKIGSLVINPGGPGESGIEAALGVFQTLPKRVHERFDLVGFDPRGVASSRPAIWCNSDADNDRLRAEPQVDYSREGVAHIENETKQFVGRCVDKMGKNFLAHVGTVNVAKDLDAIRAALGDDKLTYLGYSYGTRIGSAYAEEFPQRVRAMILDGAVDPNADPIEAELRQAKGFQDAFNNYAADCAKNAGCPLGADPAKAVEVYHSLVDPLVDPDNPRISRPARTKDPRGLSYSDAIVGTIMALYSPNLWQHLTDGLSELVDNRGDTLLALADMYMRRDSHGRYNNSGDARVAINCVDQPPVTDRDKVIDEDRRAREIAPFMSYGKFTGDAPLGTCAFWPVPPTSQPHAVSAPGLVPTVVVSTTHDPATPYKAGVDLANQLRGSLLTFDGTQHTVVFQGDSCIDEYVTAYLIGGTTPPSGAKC

[1] = test system: nontuberculous mycobacteria (NTM); assay: Detection of Mtb versus nontuberculous mycobacteria cells with FLASH probe; conditions: IL values for millions or thousands of cells of each species, 1 h with FLASH

COC1(c2ccc(/C=C/C(=O)O)c(OCc3ccc(NC(=O)[C@H](CC(C)C)NC(=O)[C@H](CCCCN)NC(=O)[C@H](Cc4ccc(Cl)cc4)NC(=O)[C@@H](NC(C)=O)C4Cc5ccccc5C4)cc3)c2Cl)OOC12C1CC3CC(C1)CC2C3 (stereo partly shown) [FLASH] (Ac-[Igl][Phe(4-Cl)]KL-X1)
LOD, lowest number of bacterial cells that can be detected by the probe (Mtb strain mc^26020): ≤ 100,000 cells
LOD, lowest number of bacterial cells that can be detected by the probe (Mtb strain H37Rv): ≤ 100,000 cells
limit of detection (LOD) of Hip1 enzyme (recombinant Hip1 enzyme): ~2 pmol
sensitivity to Mtb compared to nontuberculous mycobacteria [1]: more sensitive to Mtb compared to common nontuberculous mycobacteria
